According to patent US20050153361A1, “Therapeutic and diagnostic applications of protein disulphide isomerases” (priority 2003, published 2005):
“Also recorded” adds a separate entry of the source.

Legend:
[1] = test system: endothelin-1 secretion by HDMEC; assay: Endothelin-1 secretion by HDMEC measured by ELISA after siRNA treatment; assay type: cell-based, human; conditions: under hypoxia
Protocol: (§1) Transfection of microvascular endothelial cells with siRNA: EndoPDI specific (5′-[…]-3′) and PDI specific (5′-[…]-3′) siRNA oligos were synthesized using the SilencerTM siRNA Construction kit (Ambion, Huntingdon, UK) following manufacturer's instructions. HDMEC (5×10^5 cells) were plated onto 0.2% gelatin coated 10 cm petri dishes and incubated for 24 h. Cells were then transfected with 10 nM EndoPDI and/or PDI siRNA using oligofectamine reagent (Invitrogen) according to the manufacturer's instructions. The cells were then incubated for 24 h prior to hypoxia for 16 h (0.1% O2, 5% CO2 and 94.9% N2) or continuation of normoxic exposure for 16 h before performing FACS analysis as described.
Measurement of endothelin-1 secretion by ELISA: The secretion of endothelin-1 by endothelial cells was measured using a human endothelin-1 ELISA (R&D Systems, Abindgdon, UK) following manufacturer's instructions. Briefly, 50,000 cells were treated with RNAi oligos as before, the medium collected and diluted 1/25 for use in the ELISA.

[2] = test system: CD105 cell surface expression on HDMEC; assay: CD105 cell surface expression on HDMEC by FACS after siRNA treatment; assay type: cell-based, human; conditions: under hypoxia
Protocol: as §1
The cell surface expression of CD105 was quantified by incubating 10^5 cells per tube with 50 μl (10 μl/ml in PBS) of monoclonal antibody to CD105 on ice for 1 h and washed twice with cold PBS. After incubation with FITC-labelled rabbit anti-mouse F(ab)2 (1/40 DAKO) for 30 min on ice, the cells were washed and resuspended in 0.3 ml of 2% buffered formalin and analyzed on a FACScan.

[3] = test system: human dermal microvascular endothelial cells (HDMEC); assay: FACS analysis of apoptosis (Annexin V-FITC / propidium iodide) after siRNA transfection; assay type: cell-based; conditions: for cell population being apoptotic: 10 nM siRNA
Protocol: as §1
FACS Analysis: To distinguish apoptotic from necrotic cells, double staining for exposed phosphatidylserine and propidium iodide (PI) exclusion was performed as follows: Cells were harvested, washed twice with PBS and resuspended in binding buffer (10 mM HEPES/NaOH, pH 7.4, 140 mM NaCl, 2.5 mM CaC12). Five μl Annexin V-FITC antibody (Pharmingen, San Diego, USA) and 10 μl PI (50 μg/ml) were added to the cells. After incubation for 15 min in the dark at room temperature, the cells were analysed by a FACScan. Controls of unstained cells, cells stained with Annexin V-FITC only and cells stained with PI only were used to set up compensation and quadrants.

[4] = test system: adrenomedullin secretion by HDMEC; assay: Adrenomedullin secretion by HDMEC measured by radioimmunoassay after siRNA treatment; assay type: cell-based, human; conditions: under hypoxia
Protocol: as §1
Measurement of adrenomedullin by Radioimmunoassay: The secretion of adrenomedullin by endothelial cells was measured using an adrenomedullin radioimmunoassay (Peninsula Laboratories Europe, Ltd, Merseyside, England) following manufacturer's instructions. Briefly, 50,000 cells were treated with RNAi oligos as before, the medium collected and used in the radioimmunoassay.

EndoPDI protein = assay: Western blotting of EndoPDI protein after siRNA transfection; assay type: cell-based, human; conditions: HDMEC, 10 nM siRNA
From the text: Production of polyclonal antibodies to EndoPDI and Western blotting; The peptide of sequence ADGEDGQDPHSKC was synthesized by the Protein and Peptide Chemistry Department of Cancer Research UK, using standard techniques. This sequence corresponds to amino acids 52 to 63 of the human EndoPDI protein sequence with an additional cysteine residue added to the C-terminus to enable coupling to a carrier protein. The peptide was coupled to Imject® Maleimide Activated mcKLH (Pierce, Rockford, USA) following the manufacturer's instructions and diluted with Freunds adjuvant before injection into rabbits. A standard immunisation protocol was followed with 200 μg immunogen used for the first injection and 100 μg immunogen for subsequent boosts. The test bleeds were screened against pre-bleeds by ELISA to identify the presence of antibodies to EndoPDI in the rabbit serum.
as §1

EndoPDI mRNA = assay: RNase protection analysis of EndoPDI mRNA after siRNA transfection; assay type: cell-based, human; conditions: HDMEC, 10 nM siRNA
Protocol: RNase Protection Assay. Total RNA was extracted from cells in culture using TRI reagent (Sigma, Poole, Dorset, UK). RNase protection assays were performed in duplicate on 10-30 μg of total RNA as described (16). […] The protected fragment size for EndoPDI was 300 nucleotides. In each assay, a positive and negative (tRNA only) control and undigested riboprobes were analysed. Intensity of signal, quantified on a PhosphorImager (Molecular Dynamics, Chesham, Buckinghamshire, United Kingdom) was calculated as the ratio of the signal of interest to U6 mRNA to correct for variations in loading.
as §1

[5] = hypoxia 16 h (0.1% O2), listed as siRNA specific to EndoPDI
[6] = normoxia, listed as siRNA specific to EndoPDI

| Substance | endothelin-1 secretion [1] | CD105 cell surface expression [2] | apoptotic population compared with controls ([3]; HDMEC, hypoxia (0.1% O2, 16 h)) | cell population being apoptotic ([3]; HDMEC, hypoxia (0.1% O2, 16 h)) [%] | apoptotic population compared with controls ([3]; HDMEC, normoxia) | cell population being apoptotic ([3]; HDMEC, normoxia) [%] | adrenomedullin secretion [4] | EndoPDI protein expression (EndoPDI protein; [5]) | EndoPDI protein expression (EndoPDI protein; normoxia) | EndoPDI protein expression (EndoPDI protein; [6]) | EndoPDI mRNA expression (EndoPDI mRNA; [5]) | EndoPDI mRNA expression (EndoPDI mRNA; normoxia) | EndoPDI mRNA expression (EndoPDI mRNA; [6]) | share of the cell population with marked reduction in CD105 expression ([2]; two peaks apparent) [%] | necrotic cell population ([3]; HDMEC, hypoxia) | HDMEC survival ([3]; normoxia) |
| --- | --- | --- | --- | --- | --- | --- | --- | --- | --- | --- | --- | --- | --- | --- | --- | --- |
| PDI specific siRNA: PDI specific siRNA oligo, 5′-GACCTCCCCTTCAAAGTTGTT-3′ (listed as DNA, chemistry not given here) [reference compound] | significant decrease | little effect | significant increase | 48 | significant increase | 55 | little effect |  |  |  |  |  |  |  |  |  |
| EndoPDI specific siRNA: EndoPDI specific siRNA oligo, 5′-GAAGCTGTGAAGTACCAGGTT-3′, synthesized with the Silencer siRNA Construction kit (listed as DNA, chemistry not given here) | even greater reduction | marked reduction | significant increase | 12 |  | 4.5 | significantly reduced | loss of EndoPDI expression; also recorded: complete loss | completely blocked | complete loss | loss of EndoPDI expression; also recorded: complete loss | completely blocked | complete loss | 50 | significant increase | no effect |
